This is an account of results in patent US6797694B2, “Chemical compounds having ion channel blocking activity for the treatment of immune dysfunction” (priority 1999, dated 2004).

For this experiment, the system named is T cells. As to the kind of experiment: Inhibition of antigen (PPD) induced T cell proliferation, [3H]thymidine incorporation. Type of experiment: cell-based. The following applies: solvent control 26.1. As to the method:
The chemical compounds used according to the invention prevent immunological proliferation by selective inhibition of the Ca^2+-activated K-channels in T- and B-lymphocytes. This effect may be verified using various proliferation assays. In this experiment the proliferative assay described by Ødum et al. [Ødum N, Kanner S B, Ledbetter J A, & Svejgaard A; J. Immunol. 1993 150 (12) 5289-5298] was used.
Assays were performed in culture medium (RPMI 1640; available from Gibco, Grand Island, N.Y.) supplemented with 10% pooled human serum, 2 mM L-glutamine, 100 μg/ml penicillin, and 100 μg/ml streptomycin (available from Novo Nordisk, Copenhagen, Denmark) in 96-well round bottom tissue culture plates (available from Nunc, Roskilde, Denmark) with a final volume of 200 μl.
T cells were pre-incubated for three hours with the test compounds before addition of antigen (PPD; Purified protein derivative, available from Statens Serum Institut, Denmark; 100 μg/ml). T cells were cultured at 5×10^4 cells/well for 144 hours. Twelve hours before harvest, [^3H]thymidine ([…]) was added. The cells were harvested onto glass fibre filters, and the [^3H]thymidine incorporation was measured in a scintillation counter. The results were expressed as mean counts per minute (cpm) from triplicate cultures.

In the case of `OC(c1ccccc1)(c1ccccc1)c1ccc(Cl)cc1` [A, (4-chlorophenyl-diphenyl)-carbinol], the “T Cell Proliferation” value by setting is: (test compound 10 μM) 19.8 cpm × 10^−3; (test compound 25 μM) 18.1 cpm × 10^−3.

In the case of `CC(=O)C(c1ccccc1)(c1ccccc1)c1ccccc1` [C, 1,1,1-triphenylacetone], the “T Cell Proliferation” value runs as follows: (test compound 10 μM) 18 cpm × 10^−3; (test compound 25 μM) 19 cpm × 10^−3.
